In general, IC50 refers to the concentration that gives 50% inhibition.

Test [1] concerns nAChRs, SuSC crude synaptosomes of nAChR subunit null mutant mice. The class given is biochemical, mouse.
Test [2] concerns nAChRs on SuSC GABAergic terminals (crude synaptosomes). The class given is biochemical, mouse.
In the next test the test system is nAChRs in SuSC membranes. The format is binding, mouse (C57BL/6).
Test [3] deals with nAChRs in SC core membranes. The class given is binding, mouse (C57BL/6).
Another test relates to nAChR, SuSC. To be noted: rat, in vivo; cited from earlier work.
A further test deals with α4β2* nAChR. Particulars: cited from earlier work.
The next test has as its system rat α3β2 receptors. To be noted: cited from earlier work.
Test [4] relates to α-CtxMII-sensitive nAChR, striatum. To be noted: cited from earlier work.
In test [5] the test system is α6β2*-nAChR, crude striatal synaptosomes. The class given is biochemical, mouse.
Another test deals with α6β2* and α3β2* nAChR. To be noted: cited from earlier work.
Another test relates to SuSC crude synaptosomes. The class given is biochemical, mouse. To be noted: n = 5.
Test [6] deals with α-CtxMII-sensitive nAChR, SuSC crude synaptosomes (Mus musculus, UniProt Q8R4G9+Q9ERK7). The class given is biochemical.

“And” between values parts separate entries of the source, which are not always exact repeats. Equal entries are not always repeated. “Also recorded” adds a separate entry of the source.

Chain of α-CtxMII-sensitive nAChR, SuSC crude synaptosomes (Q8R4G9 whole entry, looked up): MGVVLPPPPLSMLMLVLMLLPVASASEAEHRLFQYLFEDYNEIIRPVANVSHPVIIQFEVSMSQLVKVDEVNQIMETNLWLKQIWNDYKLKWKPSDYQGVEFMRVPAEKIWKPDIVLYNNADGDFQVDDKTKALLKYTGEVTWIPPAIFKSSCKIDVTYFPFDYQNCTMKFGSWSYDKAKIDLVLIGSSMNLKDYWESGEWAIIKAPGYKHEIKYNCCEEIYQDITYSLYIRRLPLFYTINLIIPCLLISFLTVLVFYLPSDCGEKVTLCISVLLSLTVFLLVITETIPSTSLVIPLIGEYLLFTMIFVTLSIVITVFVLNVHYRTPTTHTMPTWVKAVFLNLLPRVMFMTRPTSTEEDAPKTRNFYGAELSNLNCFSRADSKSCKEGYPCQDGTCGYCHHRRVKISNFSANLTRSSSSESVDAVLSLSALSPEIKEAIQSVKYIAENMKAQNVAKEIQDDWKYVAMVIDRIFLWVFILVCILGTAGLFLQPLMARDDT
Chain of α-CtxMII-sensitive nAChR, SuSC crude synaptosomes (Q9ERK7 whole entry, looked up): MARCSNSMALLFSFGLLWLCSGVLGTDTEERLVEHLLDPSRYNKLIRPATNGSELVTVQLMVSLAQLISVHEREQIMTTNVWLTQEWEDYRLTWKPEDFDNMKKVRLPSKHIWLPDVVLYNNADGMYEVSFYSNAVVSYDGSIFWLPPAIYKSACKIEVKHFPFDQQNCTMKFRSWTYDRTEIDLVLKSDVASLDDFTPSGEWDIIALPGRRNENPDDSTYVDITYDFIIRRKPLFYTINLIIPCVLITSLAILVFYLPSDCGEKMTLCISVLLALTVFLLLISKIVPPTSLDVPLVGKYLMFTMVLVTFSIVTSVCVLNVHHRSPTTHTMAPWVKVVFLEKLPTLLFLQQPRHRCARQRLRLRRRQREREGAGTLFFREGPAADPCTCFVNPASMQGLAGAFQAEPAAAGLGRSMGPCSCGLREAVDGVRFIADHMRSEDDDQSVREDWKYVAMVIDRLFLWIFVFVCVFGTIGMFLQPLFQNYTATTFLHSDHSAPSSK

`CC(=O)OCC[N+](C)(C)C` [ACh, Acetylcholine]: in [1], the “ACh-stimulated [^3H]-GABA release in β2^-/- mice” value was “entirely β2 subunit-dependent; also recorded: completely absent”; the “ACh-stimulated [^3H]-GABA release remaining in α4^-/- mice, of WT activity” value is 9.7 ± 1.1 % of WT activity remaining; the “decrease of total function by α4 subunit deletion” value is above 90%. Further, in test [2], the “loss of ACh-evoked [^3H]-GABA release in the absence of external calcium” value worked out at 94 ± 3%; the “maximal ACh-stimulated [^3H]-GABA release, α-CtxMII-resistant component” value came out at 1.00 ± 0.20 × baseline; the “maximal ACh-stimulated [^3H]-GABA release, α-CtxMII-sensitive component” value is 0.71 ± 0.08 × baseline; the “maximal [^3H]-GABA release, high sensitivity component” value was determined as 0.68 ± 0.19. In addition, in [2], the “maximal [^3H]-GABA release, low sensitivity component” value was 1.47 ± 0.21 and the “share of ACh-elicited [^3H]-GABA release due to α4β2*-type receptor” value is recorded as around 65%.

Consider `N#Cc1cc2c(cc1[N+](=O)[O-])=NC(=O)C(=O)N=2` [CNQX, 6-Cyano-7-nitroquinoxaline-2,3-dione], for which the “effect of CNQX on ACh-stimulated [^3H]-GABA release” value in test [2] (100 μM, 5 min, n=4) is reported as “no effect”.

For `CN1[C@@H]2CC[C@H]1C[C@@H](OC(=O)c1cc(Cl)cc(Cl)c1)C2` [MDL-72222, Tropanyl 3,5-dichlorobenzoate], the “effect of MDL-72222 on ACh-stimulated [^3H]-GABA release” value in test [2] (1 μM, 5 min, n=5) was “no effect”.

With `C[C@]12N[C@H](Cc3ccccc31)c1ccccc12` [MK-801, (5S,10R)-(+)-5-Methyl-10,11-dihydro-5H-dibenzo[a,d]cyclohepten-5,10-imine], the “effect of MK-801 on ACh-stimulated [^3H]-GABA release” value in test [2] (200 μM, 5 min, n=4) is on record as “no effect”.

As to `CNC1(C)C2CCC(C2)C1(C)C` (stereo not shown) [Mecamylamine, mecamylamine], the “effect on ACh-evoked [^3H]-GABA release (abstract)” value in [2] was “blocked”. Further, the “effect of mecamylamine on ACh-stimulated [^3H]-GABA release” value in test [2] (10 μM, 1 min, n=3) was “completely eliminated ACh-stimulated release of [^3H]-GABA”.

For `Nc1ncnc2c1ncn2[C@@H]1O[C@H](COP(=O)(O)OP(=O)(O)OP(=O)(O)O)[C@H]2OC3(O[C@H]21)C([N+](=O)[O-])=CC(=[N+]([O-])[O-])C=C3[N+](=O)[O-]` (stereo partly shown) [TNP-ATP], in [2] (10 μM, 4 min, n=3), the “effect of TNP-ATP on ACh-stimulated [^3H]-GABA release” value is recorded as “no effect”.

With `[125I]c1ccc(C2CC3CCC2N3)cn1` (stereo not shown) [[^125I]-epibatidine], the “Bmax, specific [^125I]epibatidine binding” value in the test on nAChRs in SuSC membranes is reported as 100 ± 2 fmol/mg. For the same compound, the “Bmax, [^125I]-epibatidine binding” value in test [3] was found to be 56 ± 2 fmol/mg.

Turning to `CN1[C@@H]2CC[C@H]1C[C@@H](OC(=O)C(CO)c1ccccc1)C2` (stereo partly shown) [atropine], the “effect of atropine on ACh-stimulated [^3H]-GABA release” value in [2] is given as “no effect”.

In the case of `[Cd]` [cadmium], in test [2], the “block of ACh-stimulated [^3H]-GABA release by cadmium” value amounted to 94 ± 1% and the “effect on ACh-evoked [^3H]-GABA release (abstract)” value is “blocked”.

As to `CN1[C@@H](CC(=O)c2ccccc2)CCC[C@H]1C[C@H](O)c1ccccc1` [lobeline], the “visual responses originating in the SuSC” value in the test on nAChR, SuSC is reported as “reduced”.

For `CN1CCC[C@H]1c1cccnc1` [nicotine], the “binding to α4β2* nAChR” value with α4β2* nAChR is “binds nicotine and other agonists with high affinity”.

For the compound α-conotoxin MII [α-CtxMII], in the test with rat α3β2 receptors, the “t1/2 of recovery from α-CtxMII inhibition, rat α3β2 receptors” value is “approximately 4 minutes” and the “time by which full recovery was observed, rat α3β2 receptors” value is listed as at most 26 min. In test [4], the “t1/2 of recovery from α-CtxMII inhibition, [^3H]-DA release” value is recorded as around 26 min. The “specific [^125I]epibatidine binding sensitive to inhibition by α-CtxMII” value in the test on nAChRs in SuSC membranes (0.0002 µM) is 40 +/- 5% and 40.2 ± 5.2%. Also, the IC50 in the test with nAChRs in SuSC membranes (read-out: IC50 for the α-CtxMII-resistant sites) is above 1000 nM. Further, in [1], the “α-CtxMII sensitive [^3H]-GABA release after β3 subunit gene deletion” value is listed as “unaffected” and the “α-CtxMII-sensitive [^3H]-GABA release after deletion of the α6 subunit” value is “no appreciable impact”. In addition, the “[^3H]-GABA release in α6-null mutant mice” value in test [1] (n = 4) is listed as “indistinguishable from the same measures in wild-type mice”. In [2], the “concentration at which maximal inhibition of [^3H]-GABA release was achieved” value was 30 nM; the “effect of 100nM α-CtxMII on response to ACh” value is “reduced the response seen by stimulation with ACh, but did not eliminate it”; the “nAChR-mediated SuSC [^3H]-GABA release inhibited by α-conotoxinMII (abstract)” value is “Approximately 50%”; the “α-CtxMII sensitive fraction of total [^3H]-GABA release” value is 58 ± 7%. Also, in [2] (read-out: IC50, inhibition of ACh-stimulated [^3H]-GABA release), the IC50 came to 1.05 nM. Besides, the “inhibition of ACh-stimulated [^3H]-dopamine release” value in test [5] was found to be 41.2 ± 2.8%. In the test with α6β2* and α3β2* nAChR, the “affinity for α6β2* and α3β2* nAChR subtypes” value was “high affinity”; the “subtypes inhibited by the α-conotoxin” value was “inhibits both α3β2*- and α6β2*-nAChR”. The “inhibition of [^125I]-epibatidine binding” value in [3] is “not inhibited by α-CtxMII at concentrations below 1 μM”. For the same compound, the “K^+-evoked [^3H]-GABA release in the presence of α-CtxMII” value with SuSC crude synaptosomes is given as 14.1 ± 2.7. Further, the “lag period during which no recovery was observed” value in test [6] was “approximately 5 min”. For the same compound, in test [6] (n = 3-4), the “functional recovery of ACh-evoked [^3H]-GABA release, of control” value came out at 91 ± 18%; the “t1/2 for recovery from α-CtxMII inhibition” value is 5.2 min and ~5 min.

The values above are taken from PMC4026281 (Journal of neurochemistry, 2012).
